Measurements taken from patent publication US20210388007A1, “COMPOUND AND PREPARATION METHOD AND APPLICATION THEREOF” (WUHAN UNIVERSITY, priority 2020, published 2021).

Columns and labels:
[1] = storage stability (sealed storage, degradation rate); type: physicochemical
Experimental: (§1) The storage stability, light stability and solubility in common solvents of the tri(di)fluoroethanolation reagents 1a, 2a, A2, A3 and A4 prepared in Embodiment 1, Embodiment 23, Embodiment 30, Embodiment 31 and Embodiment 32 of the present disclosure were tested, and the results are shown in Table 1 below.

[2] = light stability (continuous white light irradiation, degradation rate); type: physicochemical
Experimental: as §1

[3] = solubility in common solvents of the tri(di)fluoroethanolation reagents; type: physicochemical; details: for solubility acetonitrile: solvent acetonitrile; for solubility dichloromethane (DCM): solvent dichloromethane (DCM); for solubility ethyl acetate (EA): solvent ethyl acetate (EA); for solubility n-hexane: solvent n-hexane
Experimental: as §1

| Compound | storage stability, sealed storage at 5° C. for two weeks (degradation rate, mol %) [1] [% mol %] | storage stability, sealed storage at 30° C. for two weeks (degradation rate, mol %) [1] [% mol %] | light stability, continuous white light irradiation at 25° C. for 2 days (degradation rate, mol %) [2] [% mol %] | solubility acetonitrile [3] | solubility dichloromethane (DCM) [3] | solubility ethyl acetate (EA) [3] | solubility n-hexane [3] | storage stability, sealed storage at 5° C. for two weeks (degradation rate, mol %) ([1]; listed as A2) [% mol %] | storage stability, sealed storage at 30° C. for two weeks (degradation rate, mol %) ([1]; listed as A2) [% mol %] | melting point [°C] |
| --- | --- | --- | --- | --- | --- | --- | --- | --- | --- | --- |
| C[Si](c1ccccc1)(c1ccccc1)C(O)C(F)(F)F (racemic) [Embodiment A4] | <1 | 3.2 | <1 | dissolved | dissolved | dissolved | well | – | – | – |
| C[Si](C)(c1ccccc1)C(O)C(F)(F)F (racemic) [a1] | <1 | 5 | <1 | dissolved | dissolved | dissolved | dissolved | – | – | – |
| OC(C(F)(F)F)[Si](c1ccccc1)(c1ccccc1)c1ccccc1 (stereo not shown) [Embodiment A3] | <1 | <1 | <1 | dissolved | dissolved | dissolved | slightly | – | – | – |
| C[Si](C)(c1ccccc1)C(O)C(F)F (racemic) [a2] | <1 | 4 | <1 | dissolved | dissolved | dissolved | dissolved | 2 | 14 | – |
| CC1(CC(O)C(F)(F)F)C(=O)N(c2ccccc2)c2ccccc21 (stereo not shown) [Embodiment 21, 3-methyl-1-phenyl-3-(3,3,3-trifluoro-2-hydroxypropyl)indol-2-one] | – | – | – | – | – | – | – | – | – | 116 to 118 |
